Measured values from patent publication US7166570B2, “Medical implants and fibrosis-inducing agents” (Angiotech International AG, priority 2003, dated 2007).

Tests used:
Experiment in all cases: MIC determination by microtitre broth dilution
Assay type in all cases: cell-based
S. pyogenes C721 wt = settings: Gram+, Todd Hewitt broth, 37° C., 24 h, aerobic, N = No activity
Procedure: (§1) MIC assays were conducted essentially as described by Amsterdam, D. 1996, “Susceptibility testing of antimicrobials in liquid media,” p. 52–111. In Loman, V., ed. Antibiotics in laboratory medicine, 4th ed. Williams and Wilkins, Baltimore, Md.

[1] = tested on: S. aureus ATCC25923 C622 wt; settings: Gram+, Mueller Hinton broth, 37° C., 24 h, aerobic, N = No activity
Procedure: as §1

[2] = tested on: K. pneumoniae ATCC13883 C238 wt; settings: Gram−, Mueller Hinton broth, 37° C., 24 h, aerobic, N = No activity
Procedure: as §1

E. coli UB1005 C498 wt = settings: Gram−, Mueller Hinton broth, 37° C., 24 h, aerobic, N = No activity
Procedure: as §1

[3] = tested on: P. aeruginosa PAE/K799 H187 Wt; settings: Gram−, Mueller Hinton broth, 37° C., 24 h, aerobic, N = No activity
Procedure: as §1

S. epidermidis C621 wt = settings: Gram+, Mueller Hinton broth, 37° C., 24 h, aerobic, N = No activity
Procedure: as §1

Row | Compound | Minimum inhibitory concentration (MIC) (S. pyogenes C721 wt) | Minimum inhibitory concentration (MIC) [1] | Minimum inhibitory concentration (MIC) [2] | Minimum inhibitory concentration (MIC) (E. coli UB1005 C498 wt) | Minimum inhibitory concentration (MIC) [3] | Minimum inhibitory concentration (MIC) (S. epidermidis C621 wt)
1 | CC[C@@]1(O)C(=O)OCc2c1cc1n(c2=O)Cc2cc3ccccc3nc2-1 [Camptothecin] | N | N | N | N | N | 10^−4 Molar
2 | NC(=O)NO [hydroxyurea] | 10^−4 Molar | N | N | N | 10^−4 Molar | N
3 | Sc1ncc2[nH]cnc2n1 [2-mercaptopurine] | N | N | N | N | N | N
4 | CN(Cc1cnc2nc(N)nc(N)c2n1)c1ccc(C(=O)N[C@@H](CCC(=O)O)C(=O)O)cc1 [Methotrexate] | 10^−6 Molar | 10^−5 Molar | 10^−6 Molar | N | N | N
5 | Nc1ncnc2c1ccn2[C@@H]1O[C@H](CO)[C@@H](O)[C@H]1O [tubercidin] | N | N | N | N | N | N
6 | Nc1ccn([C@@H]2O[C@H](CO)[C@@H](O)[C@@H]2O)c(=O)n1 [Cytarabine] | N | N | N | N | N | N
7 | Sc1ncnc2nc[nH]c12 [6-mercaptopurine] | N | N | N | N | N | N
8 | O=C1c2c(O)ccc(O)c2C(=O)c2c(NCCNCCO)ccc(NCCNCCO)c21 [mitoxantrone] | 10^−6 Molar | 10^−5 Molar | 10^−6 Molar | 10^−5 Molar | 10^−5 Molar | 10^−5 Molar
9 | O=c1[nH]cc(F)c(=O)[nH]1 [5-Fluorouracil] | 10^−4 Molar | 10^−7 Molar | 10^−6 Molar | 10^−6 Molar | 10^−5 Molar | 10^−7 Molar
10 | COc1cc([C@@H]2c3cc4c(cc3[C@@H](O[C@@H]3O[C@@H]5CO[C@@H](C)O[C@H]5[C@H](O)[C@H]3O)[C@H]3COC(=O)[C@H]23)OCO4)cc(OC)c1O [etoposide] | 10^−5 Molar | 10^−5 Molar | 10^−5 Molar | N | N | 10^−6 Molar
11 | COc1cccc2c1C(=O)c1c(O)c3c(c(O)c1C2=O)C[C@@](O)(C(=O)CO)C[C@@H]3O[C@H]1C[C@H](N)[C@H](O)[C@H](C)O1 [Doxorubicin] | 10^−7 Molar | 10^−5 Molar | 10^−6 Molar | 10^−4 Molar | 10^−5 Molar | 10^−6 Molar
